{
  "source": "patent US6342504B1",
  "about": "“Aromatic heterocyclic derivatives as enzyme inhibitors” (priority 1994, dated 2002)",
  "key": {"human alpha thrombin": {"target": "T1, human alpha thrombin (Homo sapiens, UniProt P00734)", "T1 construct": "Purified human alpha-thrombin; purchased Enzyme Research Laboratories, Inc", "assay": "Thrombin (fIIa) IC50 assay, chromogenic substrate Pefachrome t-PA", "type": "biochemical", "experimental": "(§1) The ability of compounds of the present invention to act as a selective inhibitor of thrombin catalytic activity was assessed by determining the concentration of compound which inhibited the activity of this enzyme by 50%, (IC50), and comparing this value to that determined for all or some of the following related serine proteases: recombinant tissue plasminogen activator (rt-PA), plasmin, activated protein C, chymotrypsin, factor Xa and trypsin.\n(§2) The buffer used for all assays was HBSA (10 mM HEPES, pH 7.5, 150 mM sodium chloride, 0.1% bovine serum albumin).\n(§3) The assay for IC50 determinations was conducted by combining in appropriate wells of a Corning microtiter plate, 50 microliters of HBSA, 50 microliters of the test compound at a specified concentration (covering a broad concentration range) diluted in HBSA (or HBSA alone for VO (uninhibited velocity) measurement), and 50 microliters of the enzyme diluted in HBSA. Following a 30 minute incubation at ambient temperature, 50 microliters of the substrate at the concentrations specified below were added to the wells, yielding a final total volume of 200 microliters. The initial velocity of chromogenic substrate hydrolysis was measured by the change in absorbance at 405 nm using a Thermo Max® Kinetic Microplate Reader over a 5 minute period in which less than 5% of the added substrate was utilized. The concentration of added inhibitor which caused a 50% decrease in the initial rate of hydrolysis was defined as the IC50 value.\nEnzyme activity was determined using the chromogenic substrate, Pefachrome t-PA (CH3SO2-D-hexahydrotyrosine-glycyl-L-Arginine-p-nitroaniline, obtained from Pentapharm Ltd.). The substrate was reconstituted in deionized water prior to use. Purified human a-thrombin was obtained from Enzyme Research Laboratories, Inc. The buffer used for all assays was HBSA (10 mM HEPES, pH 7.5, 150 mM sodium chloride, 0.1% bovine serum albumin).\nIC50 determinations were conducted where HBSA ([…]), a-thrombin (50 μl) and inhibitor (50 μl) (covering a broad concentration range), were combined in appropriate wells and incubated for 30 minutes at room temperature prior to the addition of substrate Pefachrome-t-PA (50 μl). The initial velocity of Pefachrome t-PA hydrolysis was measured by the change in absorbance at 405 nm using a Thermo Max® Kinetic Microplate Reader over a 5 minute period in which less than 5% of the added substrate was utilized. The concentration of added inhibitor which caused a 50% decrease in the initial rate of hydrolysis was defined as the IC50 value."}, "human aPC": {"target": "T2, human aPC (Homo sapiens, UniProt P04070)", "T2 construct": "purchased Hematologic Technologies, Inc", "T2 sequence (P04070 43-197)": "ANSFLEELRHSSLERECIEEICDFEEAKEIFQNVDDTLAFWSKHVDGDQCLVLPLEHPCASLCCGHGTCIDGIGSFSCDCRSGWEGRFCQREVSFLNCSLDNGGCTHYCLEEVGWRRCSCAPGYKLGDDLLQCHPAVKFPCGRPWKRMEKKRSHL", "T2 sequence (P04070 212-461)": "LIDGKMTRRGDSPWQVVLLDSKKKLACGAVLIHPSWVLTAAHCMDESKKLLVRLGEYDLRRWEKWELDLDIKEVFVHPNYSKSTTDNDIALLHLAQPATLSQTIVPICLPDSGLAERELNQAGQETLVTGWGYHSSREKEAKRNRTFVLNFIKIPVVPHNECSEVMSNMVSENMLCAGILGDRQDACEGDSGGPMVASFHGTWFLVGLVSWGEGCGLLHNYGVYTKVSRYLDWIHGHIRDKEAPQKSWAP", "assay": "biochemical", "settings": "30 minute incubation", "experimental": "as §2\nFollowing a 30 minute incubation at ambient temperature, 50 microliters of the substrate at the concentrations specified below were added to the wells, yielding a final total volume of 200 microliters.\nActivated Protein C (aPC) Assay\naPC catalytic activity was determined using the chromogenic substrate, Pefachrome PC (delta-carbobenzloxy-D-lysine-L-prolyl-L-arginine-p-nitroaniline dihydrochloride), obtained from Pentapharm Ltd.). […] Purified human aPC was obtained from Hematologic Technologies, Inc. The enzyme was diluted into HBSA prior to assay in which the final concentration was 1.0 nM."}, "human plasmin": {"target": "human plasmin (Homo sapiens, UniProt P00747)", "sequence (P00747 97-580)": "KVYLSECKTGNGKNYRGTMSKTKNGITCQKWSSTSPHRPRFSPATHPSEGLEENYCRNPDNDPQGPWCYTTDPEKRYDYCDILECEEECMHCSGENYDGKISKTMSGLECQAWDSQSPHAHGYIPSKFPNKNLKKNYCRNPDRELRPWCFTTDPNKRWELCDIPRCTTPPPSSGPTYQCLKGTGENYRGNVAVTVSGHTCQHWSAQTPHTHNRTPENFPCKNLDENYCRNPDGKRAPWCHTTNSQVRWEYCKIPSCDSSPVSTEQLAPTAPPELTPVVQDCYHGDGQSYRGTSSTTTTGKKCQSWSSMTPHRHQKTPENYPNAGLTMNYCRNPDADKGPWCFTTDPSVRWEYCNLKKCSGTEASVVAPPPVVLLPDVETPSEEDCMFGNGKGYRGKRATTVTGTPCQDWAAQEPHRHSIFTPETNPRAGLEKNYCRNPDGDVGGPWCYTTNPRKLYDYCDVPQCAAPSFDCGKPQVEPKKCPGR", "sequence (P00747 581-810)": "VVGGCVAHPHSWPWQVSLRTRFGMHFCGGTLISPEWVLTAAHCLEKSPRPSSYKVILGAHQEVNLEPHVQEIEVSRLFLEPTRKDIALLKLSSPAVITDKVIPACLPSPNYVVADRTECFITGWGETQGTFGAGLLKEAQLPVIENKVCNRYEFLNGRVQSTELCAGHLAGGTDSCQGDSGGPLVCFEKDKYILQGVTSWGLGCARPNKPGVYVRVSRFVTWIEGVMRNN", "assay": "biochemical", "experimental": "as §1, §2, §3\nPlasmin catalytic activity was determined using the chromogenic substrate, S-2366 [L-pyroglutomyl-L-prolyl-L-arginine-p-nitroaniline hydrochloride], which was obtained from Pharmacia-Upjohn. The substrate was made up in deionized water followed by dilution in HBSA prior to the assay in which the final concentration was 300 micromolar (about 2.5-times Km). Purified human plasmin was obtained from Enzyme Research Laboratories, Inc. The enzyme was diluted into HBSA prior to assay in which the final concentration was […]."}, "Human rt-PA (Activase)": {"target": "T3, Human rt-PA (Activase) (Homo sapiens, UniProt P00750)", "T3 construct": "purchased Genentech Inc", "T3 sequence (P00750 36-562)": "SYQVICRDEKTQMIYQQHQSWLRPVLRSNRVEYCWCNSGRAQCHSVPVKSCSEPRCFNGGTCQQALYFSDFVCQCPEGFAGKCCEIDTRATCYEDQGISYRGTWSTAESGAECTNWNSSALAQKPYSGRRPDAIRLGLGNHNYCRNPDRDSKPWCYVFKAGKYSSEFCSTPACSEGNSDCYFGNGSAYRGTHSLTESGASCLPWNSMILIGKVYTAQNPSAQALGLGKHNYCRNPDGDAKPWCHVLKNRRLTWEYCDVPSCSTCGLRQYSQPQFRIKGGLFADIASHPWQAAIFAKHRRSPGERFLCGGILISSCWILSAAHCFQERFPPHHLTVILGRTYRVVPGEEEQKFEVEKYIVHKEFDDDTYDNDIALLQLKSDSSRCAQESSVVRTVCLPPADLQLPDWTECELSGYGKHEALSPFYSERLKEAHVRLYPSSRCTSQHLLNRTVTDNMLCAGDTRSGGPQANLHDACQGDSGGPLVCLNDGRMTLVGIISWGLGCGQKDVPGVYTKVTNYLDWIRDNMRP", "assay": "biochemical", "settings": "30 minute incubation", "experimental": "as §1, §2, §3\nRecombinant Tissue Plasminogen Activator (rt-PA) Assay\nrt-PA catalytic activity was determined using the substrate, Pefachrome t-PA (CH3SO2-D-hexahydrotyrosine-glycyl-L-arginine-p-nitroaniline, obtained from Pentapharm Ltd.). The substrate was made up in deionized water followed by dilution in HBSA prior to the assay in which the final concentration was 500 micromolar (about 3-times Km). Human rt-PA (Activase®) was obtained from Genentech Inc. The enzyme was reconstituted in deionized water and diluted into HBSA prior to the assay in which the final concentration was 1.0 nM."}, "[1]": {"test_system": "clot formation on silk thread in A-V shunt", "assay": "Multiple extracorporeal (A-V) shunt model in rats utilizing oral dosing", "type": "in vivo", "settings": "rat, read-out: ED50 value (dose that reduced the clot size by 50%)", "experimental": "The compounds of Example 10 and 143 were evaluated in a multichamber A-V shunt model in rats. The A-V shunt model is one of the most common and generally used systems to evaluate antithrombotic compounds: Smith, J. R. and White, A. M. Br. J. Pharmacol., 77: 29-38 (1982). In this model a localized clot made up of primarily fibrin with some platelet and macrophage involvement (Shand, R. A. and Smith, J. R. and Wallis, R. B. Thromb. Res., 36: 223-232 (1984)), is formed on an artificial thrombogenic surface (typically a segment of silk or cotton thread) contained in a sialstic chamber which is part of an exteriorized shunt between the carotid artery and jugular vein. The procedure described in this Example is a modified A-V shunt model that allows for oral dosing of test agents and subsequent evaluation of efficacy over a two to three hour window in time.\nBriefly, male Harlan Sprague Dawley rats (420-450 g) were acclimated at least 72 hours prior to use. The animals were fasted for 12 hours prior to surgery with free access to water. Unanesthetized animals were grouped into three or four dosage groups (six or seven animals per group) and administered test agents orally via gavage needle, at doses of 1.0, 3.0, 10 and 50 mg/kg for the compound of Example 10, and 3.0, 10 and 30 mg/kg for the Compound of Example 143. Immediately after oral dosing, animals were anesthetized with sodium pentobarbital (Nembutal) given intraperitoneally at a dose of 50 mg/kg body weight, and placed on a isothermal pad to maintain body temperature. The level of anesthesia was monitored every 15 minutes by neuro-response to a tail pinch, respiration and core temperature. The desired depth of surgical anesthesia was maintained by administering subsequent doses (5 mg/kg) intravenously. The left femoral artery was catheterized using standard procedures for blood pressure monitoring and blood sampling, with polyethylene tubing (PE50). The left femoral vein was catheterized with PE50 tubing for delivery of anethestic.\nThe exteriorized shunts were assembled by connecting two pieces of saline filled 12.5 cm PE90 tubing with a 6 cm piece of PE160 tubing containing a 6 cm piece of silk suture size 3 and clamped with hemostats. A small 0.5 cm portion of the silk thread protrudes from the junction of the chamber with the shunt. The left jugular vein and right carotid artery were catheterized with the ends of the PE90 shunt. The shunt was unclamped and blood allowed to flow from the carotid artery, through the chamber, and exit the shunt via the jugular vein. After 15 minutes, both sides of the chamber were clamped and the suture containing the clot removed following detachment of the arterial end of the chamber. The clot was immediately weighed and recorded. This procedure takes place at predetermined intervals (60, 90, 120, and 150 minutes after oral dosing) to allow assessment of efficacy over a large window in time. Four shunts were placed with flow initiated at 45, 75, 105, and 135 minutes after oral compound administration. Clot weight from the four shunts was the primary endpoint of the protocol. Blood pressure, heart rate core temperature and respiration were monitored continuously. Following termination of the experiment the animals were euthanized with a 120 mg/kg dose of Nembutal. One experiment was performed per animal.\nED50 values were calculated at 60, 90, 120, and 150 minutes after oral dosing of test compound. ED50 is that dose that reduced the clot size by 50%. […]"}, "[2]": {"settings": "read-out: aPC (IC50) (Table 3A)"}, "[3]": {"settings": "30 minute incubation, read-out: Plasmin (IC50) (Table 3A)"}, "[4]": {"settings": "read-out: rt-PA (IC50) (Table 3A)"}},
  "note": "pIC50: −log10 of the molar value. Structures can show the parent of a compound that is named as a salt. Where two headings read alike, the source gives them in different places.",
  "data": [
    {"smiles": "COc1cccc(S(=O)(=O)Nc2cccn(CC(=O)N[C@H](C=O)CCCNC(=N)N)c2=O)c1", "note": "[Compound 3-OMe-phenyl, [3-(3-methoxylphenyl)sulfonylamino-2-oxo-1,2-dihydropyridyl]acetyl-L-argininal]", "values": [
      {"measurement": "pIC50", "setting": "human alpha thrombin", "result": 9.19},
      {"measurement": "pIC50", "setting": "human aPC; [2]", "result": "< 5.60"},
      {"measurement": "pIC50", "setting": "human plasmin; [3]", "result": "< 5.60"},
      {"measurement": "pIC50", "setting": "Human rt-PA (Activase); [4]", "result": "< 5.60"}
    ]},
    {"smiles": "CS(=O)(=O)Nc1c(CCc2ccccc2)ccn(CC(=O)N[C@H](C=O)CCCNC(=N)N)c1=O", "note": "[Compound 134B, [3-methylsulfonylamino-4-(2-phenylethyl)-2-oxo-1,2-dihydropyridyl]acetyl-L-argininal]", "values": [
      {"measurement": "pIC50", "setting": "human alpha thrombin", "result": 8.10},
      {"measurement": "aPC IC50 (Table 3B)", "setting": "human aPC", "result": "inactive"},
      {"measurement": "pIC50", "setting": "human plasmin; read-out: Plasmin IC50 (Table 3B)", "result": "< 5.60"},
      {"measurement": "pIC50", "setting": "Human rt-PA (Activase); read-out: rtPA IC50 (Table 3B)", "result": "< 5.60"}
    ]},
    {"smiles": "COc1cccc(S(=O)(=O)Nc2ccc(C)n(CC(=O)N[C@H](C=O)CCCNC(=N)N)c2=O)c1", "note": "[Compound 153A, [3-(3-methoxylphenyl)sulfonylamino-6-methyl-2-oxo-1,2-dihydro-pyridyl]acetyl-L-argininal]", "values": [
      {"measurement": "pIC50", "setting": "human alpha thrombin; 30 minute incubation, read-out: Thrombin IC50 (Table 3C)", "result": 9.34},
      {"measurement": "pIC50", "setting": "human aPC; read-out: aPC IC50 (Table 3C)", "result": "< 5.60"},
      {"measurement": "pIC50", "setting": "human plasmin; 30 minute incubation, read-out: Plasmin IC50 (Table 3C)", "result": "< 5.60"},
      {"measurement": "pIC50", "setting": "Human rt-PA (Activase); read-out: rtPA IC50 (Table 3C)", "result": "< 5.60"}
    ]},
    {"smiles": "COc1ccc(Cl)cc1S(=O)(=O)Nc1cccn(CC(=O)NC(C=O)CCCNC(=N)N)c1=O", "note": "[2-OMe, 5-Cl-phenyl, (5-chloro-2-methoxy-phenylsulfonyl-3-amino-2-oxo-1,2-dihydropyridyl)acetyl-L-Argininal, trifluoroacetate salt]", "values": [
      {"measurement": "pIC50", "setting": "human alpha thrombin", "result": 8.94},
      {"measurement": "pIC50", "setting": "human aPC; [2]", "result": "< 5.60"},
      {"measurement": "pIC50", "setting": "human plasmin; [3]", "result": "< 5.60"},
      {"measurement": "pIC50", "setting": "Human rt-PA (Activase); [4]", "result": "< 5.60"}
    ]},
    {"smiles": "Cc1ccccc1S(=O)(=O)Nc1cccn(CC(=O)N[C@H](C=O)CCCNC(=N)N)c1=O", "note": "[Compound 2-Me-phenyl, [3-(2-methylphenyl)sulfonylamino-2-oxo-1,2-dihydropyridyl]acetyl-L-argininal]", "values": [
      {"measurement": "pIC50", "setting": "human alpha thrombin", "result": 8.85},
      {"measurement": "pIC50", "setting": "human aPC; [2]", "result": "< 5.60"},
      {"measurement": "pIC50", "setting": "human plasmin; [3]", "result": "< 5.60"},
      {"measurement": "pIC50", "setting": "Human rt-PA (Activase); [4]", "result": "< 5.60"}
    ]},
    {"smiles": "N=C(N)NCCC[C@@H](C=O)NC(=O)Cn1cccc(NS(=O)(=O)c2ccccc2)c1=O", "note": "[Compound B, (3-phenylsulfonylamino-2-oxo-1,2-dihydro-pyridyl)acetyl-L-argininal]", "values": [
      {"measurement": "pIC50", "setting": "human alpha thrombin", "result": 9.01},
      {"measurement": "pIC50", "setting": "human aPC; 1.0 nM enzyme, read-out: IC50 aPC (Table 2)", "result": "< 5.60"},
      {"measurement": "pIC50", "setting": "human plasmin; 30 minute incubation, read-out: IC50 Plasmin (Table 2)", "result": "< 5.60"},
      {"measurement": "pIC50", "setting": "Human rt-PA (Activase); 1.0 nM enzyme, read-out: IC50 rt-PA (Table 2)", "result": "< 5.60"}
    ]},
    {"smiles": "CCc1ccc(NS(=O)(=O)c2cc(F)ccc2C)c(=O)n1CC(=O)N[C@H](C=O)CCCNC(=N)N", "note": "[Compound 126F, [3-(5-fluoro-2-methylphenyl)sulfonylamino-6-ethyl-2-oxo-1,2-dihydro-pyridyl]acetyl-L-argininaln]", "values": [
      {"measurement": "pIC50", "setting": "human alpha thrombin", "result": 9.15},
      {"measurement": "aPC IC50 (Table 3B)", "setting": "human aPC", "result": "inactive"},
      {"measurement": "pIC50", "setting": "human plasmin; 30 minute incubation, read-out: Plasmin IC50 (Table 3B)", "result": "~5.60"},
      {"measurement": "rtPA IC50 (Table 3B)", "setting": "Human rt-PA (Activase)", "result": "inactive"}
    ]},
    {"smiles": "N=C(N)NCCCC(C=O)NC(=O)Cn1cccc(NS(=O)(=O)Cc2ccccc2F)c1=O", "note": "(centres unmarked) [Compound 121J]", "values": [
      {"measurement": "ED50", "setting": "[1]; 1 h, 60 min after oral dose", "result": 22, "unit": "mg/kg"},
      {"measurement": "ED50", "setting": "[1]; 1.5 h, 90 min after oral dose", "result": 20, "unit": "mg/kg"},
      {"measurement": "ED50", "setting": "[1]; 2 h, 120 min after oral dose", "result": 24, "unit": "mg/kg"},
      {"measurement": "ED50", "setting": "[1]; 150 min after oral dose", "result": 28, "unit": "mg/kg"}
    ]}
  ]
}
